Legend:
[1] = system: corneal epithelium in wounded mouse eyes; assay: In vivo healing of mouse corneal epithelium (corneal wound model, fluorescein staining); design: species or system mouse (C57BL/6); settings: 25 nM (about 3 mg/kg) in aqueous PBS, applied after 1.5 mm epithelial wound; within 16 hours post-treatment; compared to PBS and EGF controls
Description: The FIG. 1s a series of photomicrographs depicting the healing of a wound in the cornea of mouse eye, at time 0 and 16 hours post-wounding, upon treatment with certain compositions of the present invention. Wounds were introduced into the corneas of mice, and the mice treated immediately after wounding with vehicle (PBS), with 100 ng/ml of epidermal growth factor (EGF), or with 25 nM (about 3 mg/kg) of a (Pro-Pro-Gly)7 CMP of the invention (SEQ ID NO:1) (“Cmpd 3”), or of a (Hyp-Pro-Gly)7-SubP CMP-TC of the invention (SEQ ID NO:390) (“Cmpd 10”).
To examine the possible therapeutic effects of CMPs and CMP-TC conjugates of the invention, studies were designed to test certain CMPs and CMP-TC conjugates in an in vivo setting—the healing of the corneal epithelium in wounded mouse eyes. […] Wound size at various time points over 48 hours was examined by fluorescein staining (see Carlson et al., id.), and documented via fluorescent photomicrography, and quantified using Image J software (see Rush, J. S. et al., Investig. Ophthalmol. Visual Sci. 57 (14): 5864-5871 (2016); Rush, J. S. et al., Investig. Ophthalmol. Visual Sci. 55 (8): 4691-4699 (2014)). […]

[2] = triple helix of the peptide chains; Sakakibara et al. 1973; cited from earlier work

Substance	wound healing in mouse cornea and corneal stroma (reduction in diameter and intensity of fluorescein fluorescence) [1]	melting temperature of a triple helix [2] [°C]
(Hyp-Pro-Gly)7-SubP [Cmpd 10]	significant acceleration of wound healing	–
(Pro-Pro-Gly)7 [Cmpd 3]	significant acceleration of wound healing	–
(ProHypGly)10	–	58
(ProProGly)10	–	24

From patent publication US12551525B2, “Collagen peptide-based medicament compositions and devices and methods of production and use thereof” (SUSTAIN HOLDINGS, LLC, priority 2017, dated 2026)
